Source: ChEMBL document CHEMBL5247647, “Phenothiazine-Based LSD1 Inhibitor Promotes T-Cell Killing Response of Gastric Cancer Cells” (J Med Chem, 2023)

Molecular target: Lysine-specific histone demethylase 1A (Homo sapiens, UniProt O60341)
Assay: Inhibition of recombinant LSD1 (unknown origin) expressed in Escherichia coli BL21 (DE3) using H3K4me2 peptide as substrate incubated for 30 mins by fluorescence based microplate reader assay

**Q.** Which IC50 does the source give for `CN(C)CCCN1c2ccccc2Sc2ccc(Cl)cc21` [CHLORPROMAZINE] here?
**A.** 5.14 µM
